What was measured:
[1] = test system: STZ-induced diabetic mice; test: Tissue weight, body weight and food intake in STZ-induced diabetic mice; type: in vivo, C57BL/6J mice; details: 28 days
[2] = test system: STZ-induced diabetic mice; test: Histology of epididymal WAT and liver tissue in STZ-induced diabetic mice; type: in vivo, C57BL/6J mice; details: 28 days
From the text: Parts of EWAT and liver tissue specimens were investigated as previously described.^31,32 Microscopic images were taken using a microscope (Olympus BX51, BX51, Olympus, Tokyo, Japan).

SREBP1c = test: Semiquantitative RT-PCR, liver tissue: SREBP1c mRNA; type: in vivo, C57BL/6J mice; details: STZ-induced diabetic mice; Metf 300 mg/kg/day oral, 28 days; relative to CON group (so in the source)
Procedure: (§1) Total RNA from liver tissue was isolated with a Trizol Reagent (Molecular Research Center, Inc., Cincinnati, Ohio) according to the manufacturer's directions. The integrity of the extracted total RNA was examined by 2% agarose gel electrophoresis, and the RNA concentration was determined by the ultraviolet (UV) light absorbency at 260 nm and 280 nm (Spectrophotometer U-2800A, Hitachi). Total RNA (1 μg) was reverse transcribed to cDNA in a reaction mixture containing buffer, and 5 μL Moloney murine leukemia virus reverse transcriptase (Epicentre, Madison, Wis., USA). The polymerase chain reaction (PCR) was performed in a final 25 μL containing 1 U Blend Taq-Plus (TOYOBO, Japan), 1 μL of the RT first-strand cDNA product, 10 μM of each forward (F) and reverse (R) primer, 75 mM Tris-HCl (pH 8.3) containing 1 mg/L Tween 20, 2.5 mM dNTP, and 2 mM MgCl2. The products were run on 2% agarose gels and stained with ethidium bromide.

G6 Pase = test: Semiquantitative RT-PCR, liver tissue: G6 Pase mRNA; type: in vivo, C57BL/6J mice; details: STZ-induced diabetic mice; Metf 300 mg/kg/day oral, 28 days; relative to CON group (so in the source)
Procedure: as §1

PEPCK = test: Semiquantitative RT-PCR, liver tissue: PEPCK mRNA; type: in vivo, C57BL/6J mice; details: STZ-induced diabetic mice; Metf 300 mg/kg/day oral, 28 days; relative to CON group (so in the source)
Procedure: as §1

GLUT4 = test: Western blotting: membrane GLUT4 in skeletal muscle of mice; details: STZ-induced diabetic mice; Metf 300 mg/kg/day oral, 28 days
Procedure: (§2) The study protocol was performed as previously described.^28 Diabetes was induced by intraperitoneal injection of streptozotocin (Sigma Chemical, St. Louis, Mo., USA) for 5 consecutive days. The dosage of STZ was 55 mg/kg (dissolved in 0.05 M cold sodium citrate buffer, pH 4.5). The normal control mice received only citrate buffer of the same volume.
(§3) During the experiment, all mice were fasted overnight, and blood was collected from the retro-orbital sinus. After dosing for 4 weeks, food was removed from the mice at night, and on the next day, the mice after 12 h of fasting were sacrificed. All of the individual tissues were collected and weighed, and parts of tissues were instantly frozen at −80° C. for later target gene analysis.
(§4) PPARα, PPARγ, and FAS proteins were performed by the liver and white adipose tissue of mice. Skeletal muscle from mice was subjected to GLUT4 expression level analysis, and the total membrane fractions were collected with buffer and determined using a described procedure. The protein contents of GLUT4, phospho-AMPK, and total AMPK were detected by Western blotting and determined as described.

PPARα [3] = test: Western blotting: PPARα in liver of mice; details: STZ-induced diabetic mice; Metf 300 mg/kg/day oral, 28 days
Procedure: as §2, §3, §4

AMPK = test: Western blotting: phospho-AMPK (Thr172)/total AMPK in skeletal muscle and liver of mice; details: STZ-induced diabetic mice; Metf 300 mg/kg/day oral, 28 days
Procedure: as §2, §3, §4

PPARγ = test: Western blotting: PPARγ in liver and adipose tissue of mice; details: STZ-induced diabetic mice; Metf 300 mg/kg/day oral, 28 days
Procedure: as §2, §3, §4

DGAT2 = test: Semiquantitative RT-PCR, liver tissue: DGAT2 mRNA; type: in vivo, C57BL/6J mice; details: STZ-induced diabetic mice; Metf 300 mg/kg/day oral, 28 days; relative to CON group (so in the source)
Procedure: as §1

FAS = test: Western blotting: FAS in liver and adipose tissue of mice; details: STZ-induced diabetic mice; Metf 300 mg/kg/day oral, 28 days
Procedure: as §2, §3, §4

PPARα [4] = test: Semiquantitative RT-PCR, liver tissue: PPARα mRNA; type: in vivo, C57BL/6J mice; details: STZ-induced diabetic mice; Metf 300 mg/kg/day oral, 28 days
Procedure: as §1

`CC(C)OC(=O)C(C)(C)Oc1ccc(C(=O)c2ccc(Cl)cc2)cc1` [Feno, fenofibrate, reference compound] was tested, and the “Tissue weight: BAT” value ([1]; Feno 250 mg/kg/day oral) was 0.319 ± 0.030 wt %, the “Tissue weight: EWAT” value ([1]; Feno 250 mg/kg/day oral) was 0.743 ± 0.059 wt % and the “Tissue weight: MWAT” value ([1]; Feno 250 mg/kg/day oral) was 0.795 ± 0.070 wt %. The “Tissue weight: RWAT” value ([1]; Feno 250 mg/kg/day oral) was 0.154 ± 0.016 wt %, the “Tissue weight: Visceral fat” value ([1]; Feno 250 mg/kg/day oral) was 0.889 ± 0.075 wt % and the “average area of adipocytes in epididymal WAT” value ([2]; Feno 250 mg/kg/day oral) was 5373.8±194.6 μm^2.

`CN(C)C(=N)N=C(N)N` [Metf, metformin, reference compound] was tested, and the “mRNA levels of SREBP1c in liver” value (SREBP1c) was “decreased”, the “mRNA levels of G6 Pase in liver” value (G6 Pase) was “decreased” and the “mRNA levels of PEPCK in liver” value (PEPCK) was “decreased”. The “Tissue weight: EWAT” value ([1]; Metf 300 mg/kg/day oral) was 0.956 ± 0.047 wt %, the “Tissue weight: RWAT” value ([1]; Metf 300 mg/kg/day oral) was 0.176 ± 0.023 wt % and the “Tissue weight: Visceral fat” value ([1]; Metf 300 mg/kg/day oral) was 1.132 ± 0.054 wt %. The “membrane expression levels of GLUT4 in skeletal muscle vs STZ group” value (GLUT4) was “greater”, the “expression levels of PPARα in the liver” value (PPARα [3]) was “increased” and the “muscular expression levels of phospho-AMPK/total AMPK compared with the STZ group (second sentence)” value (AMPK) was “increased”. For the same compound, the “expression levels of PPARγ in adipose tissue” value (PPARγ) was “decreased”, the “expression levels of PPARγ in the liver” value (PPARγ) was “decreased” and the “mRNA levels of DGAT2 in liver” value (DGAT2) was “decreased”. For the same compound, the “expression levels of FAS in adipose tissue” value (FAS) was “decreased”, the “expression levels of FAS in the liver” value (FAS) was “decreased” and the “mRNA level of PPARα in liver” value (PPARα [4]) was “increased”. For the same compound, the “average area of adipocytes in epididymal WAT” value ([2]; Metf 300 mg/kg/day oral) was 5308.9±204.7 μm^2 and the “ballooning of hepatocyte (liver histology)” value ([2]; Metf 300 mg/kg/day oral) was “no ballooning phenomenon”.
